In the NIST ThermoML archive (doi:10.1021/je060271a):
Several values for one entry are separate records, joined by “and”; a condition that tells them apart may be missing. Equal values may be shown once. ± gives the expanded uncertainty stated by the source.

Conditions: 343.15 K, Liquid, Vibrating tube method

In the case of `CCCCCC(=O)OCC(COC(=O)CCCCC)(COC(=O)CCCCC)COC(=O)CCCCC` [pentaerythritol tetrahexanoate], the mass density (203.8 kPa) is reported as 957.2 ± 1.2 kg/m3, the mass density (203.9 kPa) is reported as 957.2 ± 1.2 kg/m3 and 957.1 ± 1.2 kg/m3 and the mass density (204 kPa) is reported as 957.1 ± 1.2 kg/m3. For the same compound, the mass density (204.1 kPa) was 957.1 ± 1.2 kg/m3 and 957.2 ± 1.2 kg/m3, the mass density (204.3 kPa) was 957.2 ± 1.2 kg/m3 and 957.3 ± 1.2 kg/m3 and the mass density (204.5 kPa) was 957.2 ± 1.2 kg/m3 and 957.3 ± 1.2 kg/m3. For the same compound, the mass density (204.6 kPa) was 957.2 ± 1.2 kg/m3 and 957.3 ± 1.2 kg/m3, the mass density (204.8 kPa) was 957.3 ± 1.2 kg/m3 [middle of 4 runs] and the mass density (205 kPa) was 957.2 ± 1.2 kg/m3 and 957.3 ± 1.2 kg/m3. For the same compound, the mass density (205.2 kPa) was 957.2 ± 1.2 kg/m3, the mass density (205.3 kPa) was 957.2 ± 1.2 kg/m3 and 957.3 ± 1.2 kg/m3 and the mass density (205.7 kPa) was 957.2 ± 1.2 kg/m3. For the same compound, the mass density (205.9 kPa) was 957.2 ± 1.2 kg/m3, the mass density (206 kPa) was 957.2 ± 1.2 kg/m3 and the mass density (206.2 kPa) was 957.2 ± 1.2 kg/m3. The mass density (206.4 kPa) was 957.2 ± 1.2 kg/m3, the mass density (206.6 kPa) was 957.2 ± 1.2 kg/m3 and 957.1 ± 1.2 kg/m3 and the mass density (206.7 kPa) was 957.3 ± 1.2 kg/m3 and 957.2 ± 1.2 kg/m3. The mass density (206.9 kPa) was 957.3 ± 1.2 kg/m3 and 957.1 ± 1.2 kg/m3, the mass density (207.1 kPa) was 957.2 ± 1.2 kg/m3 and the mass density (207.2 kPa) was 957.2 ± 1.2 kg/m3. It also gave a mass density (207.3 kPa) of 957.2 ± 1.2 kg/m3, a mass density (207.4 kPa) of 957.2 ± 1.2 kg/m3 and a mass density (207.9 kPa) of 957.3 ± 1.2 kg/m3. The mass density (208.3 kPa) was 957.2 ± 1.2 kg/m3, the mass density (208.6 kPa) was 957.2 ± 1.2 kg/m3 and 957.1 ± 1.2 kg/m3 and the mass density (208.8 kPa) was 957.3 ± 1.2 kg/m3 and 957.2 ± 1.2 kg/m3. The mass density (209 kPa) was 957.2 ± 1.2 kg/m3, the mass density (209.2 kPa) was 957.3 ± 1.2 kg/m3 and 957.2 ± 1.2 kg/m3 and the mass density (209.3 kPa) was 957.2 ± 1.2 kg/m3 and 957.3 ± 1.2 kg/m3 and 957.1 ± 1.2 kg/m3. For the same compound, the mass density (209.5 kPa) was 957.2 ± 1.2 kg/m3, the mass density (209.7 kPa) was 957.2 ± 1.2 kg/m3 and the mass density (209.9 kPa) was 957.1 ± 1.2 kg/m3 and 957.2 ± 1.2 kg/m3. For the same compound, the mass density (211.1 kPa) was 957.2 ± 1.2 kg/m3, the mass density (212.5 kPa) was 957.1 ± 1.2 kg/m3 and the mass density (212.6 kPa) was 957.2 ± 1.2 kg/m3 and 957.3 ± 1.2 kg/m3. The mass density (212.7 kPa) was 957.2 ± 1.2 kg/m3, the mass density (212.8 kPa) was 957.1 ± 1.2 kg/m3 and 957.2 ± 1.2 kg/m3 and the mass density (213 kPa) was 957.2 ± 1.2 kg/m3. For the same compound, the mass density (213.2 kPa) was 957.2 ± 1.2 kg/m3, the mass density (213.3 kPa) was 957.2 ± 1.2 kg/m3 and the mass density (213.5 kPa) was 957.3 ± 1.2 kg/m3 and 957.2 ± 1.2 kg/m3. For the same compound, the mass density (213.7 kPa) was 957.3 ± 1.2 kg/m3 and 957.2 ± 1.2 kg/m3 and 957.1 ± 1.2 kg/m3, the mass density (213.9 kPa) was 957.2 ± 1.2 kg/m3 and 957.1 ± 1.2 kg/m3 and 957.4 ± 1.2 kg/m3 and the mass density (214.2 kPa) was 957.1 ± 1.2 kg/m3. The mass density (215.2 kPa) was 957.2 ± 1.2 kg/m3, the mass density (215.3 kPa) was 957.3 ± 1.2 kg/m3 and the mass density (215.4 kPa) was 957.2 ± 1.2 kg/m3 and 957.1 ± 1.2 kg/m3 and 957.3 ± 1.2 kg/m3. For the same compound, the mass density (215.6 kPa) was 957.4 ± 1.2 kg/m3 and 957.1 ± 1.2 kg/m3 and 957.2 ± 1.2 kg/m3, the mass density (215.8 kPa) was 957.3 ± 1.2 kg/m3 and the mass density (215.9 kPa) was 957.2 ± 1.2 kg/m3. The mass density (216 kPa) was 957.3 ± 1.2 kg/m3, the mass density (216.1 kPa) was 957.3 ± 1.2 kg/m3 and 957.2 ± 1.2 kg/m3 and the mass density (216.3 kPa) was 957.2 ± 1.2 kg/m3 and 957.3 ± 1.2 kg/m3. For the same compound, the mass density (216.5 kPa) was 957.3 ± 1.2 kg/m3 and 957.2 ± 1.2 kg/m3, the mass density (216.6 kPa) was 957.3 ± 1.2 kg/m3 and the mass density (216.8 kPa) was 957.2 ± 1.2 kg/m3 and 957.1 ± 1.2 kg/m3. For the same compound, the mass density (217.7 kPa) was 957.2 ± 1.2 kg/m3 and 957.3 ± 1.2 kg/m3, the mass density (218 kPa) was 957.4 ± 1.2 kg/m3 and the mass density (218.2 kPa) was 957.1 ± 1.2 kg/m3 and 957.2 ± 1.2 kg/m3. The mass density (218.6 kPa) was 957.2 ± 1.2 kg/m3, the mass density (218.9 kPa) was 957.2 ± 1.2 kg/m3 and the mass density (219.1 kPa) was 957.2 ± 1.2 kg/m3. The mass density (219.3 kPa) was 957.3 ± 1.2 kg/m3, the mass density (219.4 kPa) was 957.1 ± 1.2 kg/m3 and 957.2 ± 1.2 kg/m3 and 957.3 ± 1.2 kg/m3 and the mass density (219.6 kPa) was 957.4 ± 1.2 kg/m3. It also gave a mass density (219.8 kPa) of 957.2 ± 1.2 kg/m3, a mass density (219.9 kPa) of 957.1 ± 1.2 kg/m3 and a mass density (220 kPa) of 957.2 ± 1.2 kg/m3. It also gave a mass density (220.3 kPa) of 957.2 ± 1.2 kg/m3, a mass density (220.5 kPa) of 957.2 ± 1.2 kg/m3 and a mass density (220.6 kPa) of 957.1 ± 1.2 kg/m3. It also gave a mass density (220.8 kPa) of 957.1 ± 1.2 kg/m3, a mass density (221 kPa) of 957.1 ± 1.2 kg/m3 and a mass density (221.2 kPa) of 957.3 ± 1.2 kg/m3. It also gave a mass density (221.3 kPa) of 957.2 ± 1.2 kg/m3, a mass density (222.7 kPa) of 957.3 ± 1.2 kg/m3 and a mass density (222.9 kPa) of 957.1 ± 1.2 kg/m3. For the same compound, the mass density (223.1 kPa) was 957.2 ± 1.2 kg/m3, the mass density (223.3 kPa) was 957.3 ± 1.2 kg/m3 and 957.4 ± 1.2 kg/m3 and the mass density (223.4 kPa) was 957.1 ± 1.2 kg/m3 and 957.3 ± 1.2 kg/m3 and 957.2 ± 1.2 kg/m3. For the same compound, the mass density (223.6 kPa) was 957.2 ± 1.2 kg/m3, the mass density (223.8 kPa) was 957.3 ± 1.2 kg/m3 and the mass density (224.1 kPa) was 957.2 ± 1.2 kg/m3. For the same compound, the mass density (224.3 kPa) was 957.3 ± 1.2 kg/m3 and 957.2 ± 1.2 kg/m3, the mass density (224.5 kPa) was 957.2 ± 1.2 kg/m3 and 957.3 ± 1.2 kg/m3 and 957.1 ± 1.2 kg/m3 and the mass density (224.7 kPa) was 957.2 ± 1.2 kg/m3. The mass density (224.8 kPa) was 957.3 ± 1.2 kg/m3 and 957.2 ± 1.2 kg/m3, the mass density (225.2 kPa) was 957.3 ± 1.2 kg/m3 and the mass density (226.9 kPa) was 957.2 ± 1.2 kg/m3 and 957.3 ± 1.2 kg/m3. For the same compound, the mass density (227.1 kPa) was 957.3 ± 1.2 kg/m3, the mass density (227.4 kPa) was 957.2 ± 1.2 kg/m3 and the mass density (231.3 kPa) was 957.2 ± 1.2 kg/m3 and 957.3 ± 1.2 kg/m3. For the same compound, the mass density (231.6 kPa) was 957.3 ± 1.2 kg/m3 and 957.1 ± 1.2 kg/m3, the mass density (232 kPa) was 957.1 ± 1.2 kg/m3 and 957.2 ± 1.2 kg/m3 and the mass density (232.3 kPa) was 957.3 ± 1.2 kg/m3 and 957.2 ± 1.2 kg/m3. The mass density (232.5 kPa) was 957.2 ± 1.2 kg/m3, the mass density (232.6 kPa) was 957.3 ± 1.2 kg/m3 and the mass density (232.7 kPa) was 957.3 ± 1.2 kg/m3. The mass density (233 kPa) was 957.2 ± 1.2 kg/m3, the mass density (233.2 kPa) was 957.2 ± 1.2 kg/m3 and the mass density (233.3 kPa) was 957.2 ± 1.2 kg/m3. The mass density (233.5 kPa) was 957.2 ± 1.2 kg/m3, the mass density (233.7 kPa) was 957.3 ± 1.2 kg/m3 and the mass density (233.9 kPa) was 957.3 ± 1.2 kg/m3. For the same compound, the mass density (234 kPa) was 957.2 ± 1.2 kg/m3 and 957.3 ± 1.2 kg/m3, the mass density (234.4 kPa) was 957.2 ± 1.2 kg/m3 and the mass density (234.6 kPa) was 957.1 ± 1.2 kg/m3 and 957.4 ± 1.2 kg/m3 and 957.3 ± 1.2 kg/m3. For the same compound, the mass density (234.7 kPa) was 957.3 ± 1.2 kg/m3, the mass density (234.9 kPa) was 957.2 ± 1.2 kg/m3 and the mass density (235.1 kPa) was 957.2 ± 1.2 kg/m3. For the same compound, the mass density (235.2 kPa) was 957.2 ± 1.2 kg/m3, the mass density (235.6 kPa) was 957.2 ± 1.2 kg/m3 and the mass density (235.8 kPa) was 957.1 ± 1.2 kg/m3. For the same compound, the mass density (236 kPa) was 957.2 ± 1.2 kg/m3, the mass density (236.1 kPa) was 957.2 ± 1.2 kg/m3 and 957.3 ± 1.2 kg/m3 and the mass density (236.3 kPa) was 957.3 ± 1.2 kg/m3. It also gave a mass density (236.5 kPa) of 957.1 ± 1.2 kg/m3, a mass density (236.6 kPa) of 957.2 ± 1.2 kg/m3 and a mass density (236.8 kPa) of 957.2 ± 1.2 kg/m3. The mass density (237 kPa) was 957.1 ± 1.2 kg/m3 and 957.2 ± 1.2 kg/m3 and 957.3 ± 1.2 kg/m3, the mass density (237.3 kPa) was 957.3 ± 1.2 kg/m3 and the mass density (237.5 kPa) was 957.2 ± 1.2 kg/m3. The mass density (237.7 kPa) was 957.2 ± 1.2 kg/m3 and 957.4 ± 1.2 kg/m3, the mass density (237.9 kPa) was 957.2 ± 1.2 kg/m3 and the mass density (238 kPa) was 957.3 ± 1.2 kg/m3. It also gave a mass density (238.2 kPa) of 957.2 ± 1.2 kg/m3, a mass density (238.4 kPa) of 957.3 ± 1.2 kg/m3 and a mass density (238.6 kPa) of 957.3 ± 1.2 kg/m3. For the same compound, the mass density (238.7 kPa) was 957.3 ± 1.2 kg/m3, the mass density (238.9 kPa) was 957.3 ± 1.2 kg/m3 and the mass density (239.2 kPa) was 957.1 ± 1.2 kg/m3. For the same compound, the mass density (239.3 kPa) was 957.3 ± 1.2 kg/m3, the mass density (240.1 kPa) was 957.3 ± 1.2 kg/m3 and the mass density (240.3 kPa) was 957.3 ± 1.2 kg/m3. The mass density (240.5 kPa) was 957.3 ± 1.2 kg/m3 and 957.2 ± 1.2 kg/m3, the mass density (240.6 kPa) was 957.1 ± 1.2 kg/m3 and the mass density (240.8 kPa) was 957.3 ± 1.2 kg/m3. For the same compound, the mass density (241.2 kPa) was 957.4 ± 1.2 kg/m3, the mass density (241.3 kPa) was 957.3 ± 1.2 kg/m3 and 957.2 ± 1.2 kg/m3 and the mass density (241.5 kPa) was 957.3 ± 1.2 kg/m3 and 957.1 ± 1.2 kg/m3. For the same compound, the mass density (242 kPa) was 957.3 ± 1.2 kg/m3, the mass density (242.2 kPa) was 957.3 ± 1.2 kg/m3 and the mass density (242.4 kPa) was 957.2 ± 1.2 kg/m3. The mass density (242.6 kPa) was 957.3 ± 1.2 kg/m3.
